# Results reported in paper PMC11998009, “Identification of a New FtsZ Inhibitor by Virtual Screening, Mechanistic Insights, and Structure–Activity Relationship Analyses” (ACS Infectious Diseases, 2025).
# Like-named read-outs stand apart in the source and are kept apart here.
# Columns and labels:
# [1] = test system: S. aureus ATCC25923; assay: MIC determination by 2-fold microdilution, resazurin method; assay type: cell-based, Staphylococcus aureus; conditions: S. aureus ATCC25923, single drug
# [2] = target: T1, S. aureus FtsZ protein (FtsZSa) (Staphylococcus aureus, UniProt P0A031); assay: In vitro FtsZ GTPase activity (PK/LDH coupled assay); assay type: biochemical; parameters: Residual GTPase activity: concentration or dose not given beside the values
# T1 construct: made in house; host or cells: Escherichia coli BL21DE3
# T1 sequence (P0A031 1-390): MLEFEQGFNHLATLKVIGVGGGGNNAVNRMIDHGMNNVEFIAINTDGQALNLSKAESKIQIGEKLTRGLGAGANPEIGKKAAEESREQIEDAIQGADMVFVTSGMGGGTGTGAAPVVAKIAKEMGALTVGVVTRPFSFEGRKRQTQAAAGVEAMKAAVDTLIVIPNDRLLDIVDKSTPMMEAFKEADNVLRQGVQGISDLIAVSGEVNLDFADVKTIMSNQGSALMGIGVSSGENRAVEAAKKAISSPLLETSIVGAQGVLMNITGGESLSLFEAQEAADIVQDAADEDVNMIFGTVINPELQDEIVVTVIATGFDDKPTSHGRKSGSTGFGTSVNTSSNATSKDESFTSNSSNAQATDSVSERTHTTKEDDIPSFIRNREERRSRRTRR
# Method: In vitro FtsZ GTPase activity
# FtsZSa and FtsZPa were expressed and purified as previously described.13,14 GTPase activity was assayed at 30°C using a pyruvate kinase–L-lactic dehydrogenase (PK/LDH) spectrophotometric coupled assay, as previously described15 with minor modification. The reaction mixture was first set up to contain 50 mM MES […]
# phosphoenolpyruvate, and 4.8 μM of FtsZ. The assay was initiated by the addition of 1 mM GTP. The experiments were performed in triplicate. The inhibitory concentration that reduced the enzymatic activity by half (IC50) was determined using Prism 10. […]
# [3] = test system: S. aureus TD276; assay: MIC against the FtsZ-mCherry strain; assay type: cell-based; conditions: Staphylococcus aureus
# [4] = test system: S. aureus cystic fibrosis clinical isolates; assay: MIC for CF clinical isolates; assay type: cell-based
# [5] = test system: S. aureus TD276 expressing FtsZ-mCherry; assay: FtsZ localization by fluorescence time-lapse microscopy; assay type: cell-based; conditions: 4 μg/mL C11, time-lapse; untreated 4%
# [6] = test system: S. aureus ATCC25923 biofilms; assay: Biofilm inhibition assay (CFU counting, CLSM); assay type: cell-based
# [7] = test system: P. aeruginosa PAO1; assay: MIC / checkerboard with PaβN; assay type: cell-based
# [8] = test system: K. pneumoniae ATCC13883; assay: MIC / checkerboard with PaβN; assay type: cell-based
# [9] = test system: P. aeruginosa PAO1, K. pneumoniae ATCC13883, and A. baumannii ATCC19606; assay: MIC of C11 with PAβN, Gram-negative panel as a whole; assay type: cell-based; conditions: efflux pump inhibitor PAβN present
# [10] = target: T2, FtsZPa (Pseudomonas aeruginosa, UniProt P47204); assay: FtsZPa polymerization assay
# T2 sequence (P47204 1-394): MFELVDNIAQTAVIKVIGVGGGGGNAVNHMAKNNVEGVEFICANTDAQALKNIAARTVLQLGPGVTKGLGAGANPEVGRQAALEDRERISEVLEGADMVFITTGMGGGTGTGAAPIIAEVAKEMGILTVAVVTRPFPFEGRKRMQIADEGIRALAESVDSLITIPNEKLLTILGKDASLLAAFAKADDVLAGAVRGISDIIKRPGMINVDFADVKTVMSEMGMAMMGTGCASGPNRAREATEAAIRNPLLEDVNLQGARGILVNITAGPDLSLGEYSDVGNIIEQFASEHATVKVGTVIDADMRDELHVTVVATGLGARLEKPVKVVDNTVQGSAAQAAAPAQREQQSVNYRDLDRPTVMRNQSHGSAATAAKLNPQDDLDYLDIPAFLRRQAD
# [11] = MTT cell viability assay on A549; conditions: human, A549 cells
# [12] = test system: A549 pulmonary epithelial cells; assay: MTT cell viability assay on A549; conditions: A549, 25 μM, 24 h
# [13] = MTT cell viability assay on CFBE41o-; conditions: human, CFBE41o- cells
# [14] = test system: CFBE41o- cells; assay: MTT cell viability assay on CFBE41o-; conditions: CFBE41o-, 12.5 μM (4.8 μg/mL), 6 h
# [15] = target: T2, FtsZPa; assay: FtsZPa GTPase activity; assay type: biochemical; parameters: made in house; host or cells: Escherichia coli BL21DE3
structure (smiles),measurement,setting,value
COc1ccc(Cc2nnc(SC3=CS(=O)(=O)c4ccccc43)o2)cc1 [C11],MIC S. aureus,[1],2 µg/mL
same,MIC,[1]; Staphylococcus aureus,2 µg/mL
same,Effect on FtsZSa GTPase activity,[2],did not affect the FtsZSa GTPase activity
same,Residual GTPase activity,[2]; S. aureus FtsZ protein,82.2%
same,MIC,[3],2 µg/mL
same,MIC,"[4]; S. aureus BG8 MRSA, single drug",2 µg/mL
same,MIC,"[4]; S. aureus BG9 MRSA, single drug",2 µg/mL
same,MIC,"[4]; S. aureus BG10 MRSA, single drug",2 µg/mL
same,MIC,"[4]; Staphylococcus aureus, MRSA, S. aureus BG6 MRSA, read-out: MIC",2 µg/mL
same,MIC,"[4]; Staphylococcus aureus, MRSA, S. aureus BG7 MRSA smv, read-out: MIC",4 µg/mL
same,MIC,"[4]; Staphylococcus aureus, MRSA, S. aureus BG8 MRSA, single drug, read-out: MIC",2 µg/mL
same,MIC,"[4]; Staphylococcus aureus, MRSA, S. aureus BG9 MRSA, single drug, read-out: MIC",2 µg/mL
same,MIC,"[4]; Staphylococcus aureus, MRSA, S. aureus BG10 MRSA, single drug, read-out: MIC",2 µg/mL
same,MIC,"[4]; Staphylococcus aureus, S. aureus BG1, read-out: MIC",2 µg/mL
same,MIC,"[4]; Staphylococcus aureus, S. aureus BG2, read-out: MIC",4 µg/mL
same,MIC,"[4]; Staphylococcus aureus, S. aureus BG3, read-out: MIC",4 µg/mL
same,MIC,"[4]; Staphylococcus aureus, S. aureus BG4, read-out: MIC",8 µg/mL
same,MIC,"[4]; Staphylococcus aureus, S. aureus BG5, read-out: MIC",8 µg/mL
same,MIC,"[4]; Staphylococcus aureus, S. aureus SA1, read-out: MIC",4 µg/mL
same,MIC,"[4]; Staphylococcus aureus, S. aureus SA2, read-out: MIC",4 µg/mL
same,MIC,"[4]; Staphylococcus aureus, S. aureus SA3, read-out: MIC",2 µg/mL
same,MIC,"[4]; Staphylococcus aureus, S. aureus SA4, read-out: MIC",2 µg/mL
same,MIC,"[4]; Staphylococcus aureus, S. aureus SA5, read-out: MIC",4 µg/mL
same,MIC,"[4]; Staphylococcus aureus, S. aureus SA6, read-out: MIC",2 µg/mL
same,MIC,"[4]; Staphylococcus aureus, S. aureus SA7, read-out: MIC",2 µg/mL
same,MIC,"[4]; Staphylococcus aureus, S. aureus SA8, read-out: MIC",2 µg/mL
same,MIC,"[4]; Staphylococcus aureus, S. aureus SA9, read-out: MIC",4 µg/mL
same,MIC,"[4]; Staphylococcus aureus, S. aureus SA10, read-out: MIC",2 µg/mL
same,MIC,"[4]; Staphylococcus aureus, S. aureus SA11, read-out: MIC",4 µg/mL
same,MIC,"[4]; Staphylococcus aureus, S. aureus SA12, read-out: MIC",4 µg/mL
same,MIC,"[4]; Staphylococcus aureus, S. aureus SA13, read-out: MIC",4 µg/mL
same,MIC,"[4]; Staphylococcus aureus, S. aureus SA14, read-out: MIC",2 µg/mL
same,MIC,"[4]; Staphylococcus aureus, S. aureus SA15, read-out: MIC",4 µg/mL
same,MIC,"[4]; Staphylococcus aureus, S. aureus SA16, read-out: MIC",4 µg/mL
same,MIC,"[4]; Staphylococcus aureus, S. aureus SA17, read-out: MIC",2 µg/mL
same,MIC,"[4]; Staphylococcus aureus, S. aureus SA18, read-out: MIC",4 µg/mL
same,MIC,"[4]; Staphylococcus aureus, S. aureus SA19, read-out: MIC",2 µg/mL
same,MIC,"[4]; Staphylococcus aureus, S. aureus SA20, read-out: MIC",4 µg/mL
same,MIC,"[4]; Staphylococcus aureus, S. aureus SA21, read-out: MIC",2 µg/mL
same,MIC,"[4]; Staphylococcus aureus, S. aureus SA22, read-out: MIC",2 µg/mL
same,MIC,"[4]; Staphylococcus aureus, S. aureus SA23, read-out: MIC",4 µg/mL
same,MIC,"[4]; Staphylococcus aureus, S. aureus SA24, read-out: MIC",2 µg/mL
same,MIC,"[4]; Staphylococcus aureus, S. aureus SA25, read-out: MIC",2 µg/mL
same,MIC,"[4]; Staphylococcus aureus, panel of clinical isolates from cystic fibrosis patients, read-out: MIC values for the vast majority of the clinical isolates",2 to 4 µg/mL
same,Percentage of cells in which FtsZ was delocalized,[5],60%
same,Biofilm formation by CLSM and COMSTAT2,[6]; 2 μg/mL,only slightly affected biofilm formation
same,Biofilm formation by CFU counting,[6]; 2- or 4-fold the MIC (4–8 μg/mL),almost completely inhibit biofilm formation
same,Biofilm formation by CLSM and COMSTAT2,[6]; 4 and 8 μg/mL,almost completely abolished it
same,MIC,"[7]; P. aeruginosa PAO1, C11 alone",≥ 128 µg/mL
same,MIC,"[7]; Pseudomonas aeruginosa, PAO1, P. aeruginosa PAO1, + PaβN 64 µg/ml, read-out: MIC",16 µg/mL
same,MIC,"[7]; Pseudomonas aeruginosa, PAO1, P. aeruginosa PAO1, + PaβN […], read-out: MIC",1 µg/mL
same,MIC,"[7]; Pseudomonas aeruginosa, PAO1, P. aeruginosa PAO1, C11 alone, read-out: MIC",≥ 128 µg/mL
same,MIC,"[8]; K. pneumoniae ATCC13883, C11 alone",≥ 128 µg/mL
same,MIC,"[8]; Klebsiella pneumoniae, ATCC13883, K. pneumoniae ATCC13883, + PaβN […], read-out: MIC",8 µg/mL
same,MIC,"[8]; Klebsiella pneumoniae, ATCC13883, K. pneumoniae ATCC13883, C11 alone, read-out: MIC",≥ 128 µg/mL
same,MIC values in the presence of PAβN,[9],1 to 16 µg/mL
same,IC50,[10],34 µM
same,"viability at 6 h, 25 µM",[11],> 90%
same,Percentage of live cells (MTT),[12],higher than 70%
same,"viability at 6 h, 25 µM",[13],65%
same,"viability at 24 h, 25 µM",[13],25%
same,Percentage of live cells (MTT),[14],higher than 90%
same,Effect on FtsZPa GTPase activity,[15],did not interfere with the GTPase activity
